Measurements taken from patent US10028966B2 (Avalyn Pharma Inc., priority 2014, dated 2018).
Converted amounts (≈) assume the structure as drawn. Like-named read-outs stand apart in the source and are kept apart here. Marks after values point to notes of the source that are not given here.

Assays:
[1] = Osmolality determination and nebulization for taste testing, throat irritation and cough response; conditions: for Cough Response? / Throat Irritation?: nebulized
Excerpt: Selected formulations were subjected to osmolality determination and nebulization for taste testing and throat irritation and or cough response.

[2] = test system: inflammasome activation in 264.7 macrophages; assay: Inflammasome second signal activation (ATP, secreted IL-1β); assay type: cell-based; conditions: for IL-1β: LPS +, ATP +; for IC50: Macrophage
[3] = cited from earlier work; for AUC (0-18 hrs) / Cmax: human
[4] = Co-solvent and surfactant effects on pirfenidone saturation solubility; assay type: physicochemical; conditions: aqueous co-solvent/surfactant solvent system, thermodynamic from solid;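 also: samples equilibrated by overnight agitation at ambient temperature, with solubility taken from the supernatant after undissolved solid was removed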
Protocol: Each sample was agitated at ambient temperature overnight. The samples were visually inspected and appearance recorded. Samples were centrifuged to sediment any un-dissolved material and the supernatant withdrawn via syringe through a 0.22 μm PVDF filter. […] The remaining filtered sample was split into three equal volumes in glass vials and placed at 25° C./60 RH, 40° C./75 RH and refrigeration. Samples are wrapped in aluminum foil to reduce light exposure. After the first night of incubation, samples are briefly visually inspected for any signs of discoloration or precipitate formation.

[5] = 43.7 mg/mL pirfenidone, 8% EtOH, 16% PG, 0 mM sodium saccharin, 76% phosphate buffer (5 mM), pH 7.0
[6] = 43.7 mg/mL pirfenidone, 8% EtOH, 16% PG, 0.3 mM sodium saccharin, 76% phosphate buffer (5 mM), pH 7.0
[7] = 27.2 mg/mL pirfenidone, 4% EtOH, 8% PG, 88% phosphate buffer (5 mM), pH 6.6
[8] = 34.7 mg/mL pirfenidone, 6% EtOH, 12% PG, 82% phosphate buffer (5 mM), pH 7.0
[9] = oral 801 mg fasted-state, plasma

Cc1ccc(=O)n(-c2ccccc2)c1 [pirfenidone, 5-methyl-1-phenyl-2-(1H)-pyridone]
Osmolality [1, 5]: 3672 mOsmo/Kg | Osmolality [1, 6]: 3672 mOsmo/Kg | Osmolality ([1]; calculated, 27.2 mg/mL pirfenidone, 4% EtOH, 8% PG, 88% phosphate buffer (5 mM), pH 6.6): ~1830* mOsmo/Kg | Osmolality ([1]; calculated, 34.7 mg/mL pirfenidone, 6% EtOH, 12% PG, 82% phosphate buffer (5 mM), pH 7.0): ~2750* mOsmo/Kg | Cough Response? [1, 7]: No | Throat Irritation? [1, 7]: No | Cough Response? [1, 8]: No | Throat Irritation? [1, 8]: No | Cough Response? [1, 5]: No | Throat Irritation? [1, 5]: No | Cough Response? [1, 6]: No | Throat Irritation? [1, 6]: No | IL-1β ([2]; Longer-term exposure, 40 min > ATP, pirfenidone 5 mcg/mL): 1.4 pg/mL | IL-1β ([2]; Longer-term exposure, 40 min > ATP, pirfenidone 25 mcg/mL): 1.1 pg/mL | IL-1β ([2]; Longer-term exposure, 40 min > ATP, pirfenidone 125 mcg/mL): 0.9 pg/mL | IL-1β ([2]; Longer-term exposure, 40 min > ATP, pirfenidone 625 mcg/mL): 0.4 pg/mL | IC50 ([2]; 40 min, second (40 minute) sampling point alone, short-term exposure): ~25 µg/mL (≈ 0.135 mM) | IC50 ([2]; sum of short-term sampling points and longer-term sampling point): ~625 µg/mL (≈ 3.37 mM) | IL-1β ([2]; Short-term exposure, 10 + 40 min > ATP (sum of sampling points), pirfenidone 5 mcg/mL): 1.1 pg/mL | IL-1β ([2]; Short-term exposure, 10 + 40 min > ATP (sum of sampling points), pirfenidone 25 mcg/mL): 1.0 pg/mL | IL-1β ([2]; Short-term exposure, 10 + 40 min > ATP (sum of sampling points), pirfenidone 125 mcg/mL): 1.0 pg/mL | IL-1β ([2]; Short-term exposure, 10 + 40 min > ATP (sum of sampling points), pirfenidone 625 mcg/mL): 0.6 pg/mL | IL-1β ([2]; Short-term exposure, 10 min > ATP, pirfenidone 5 mcg/mL): 81.5 pg/mL | IL-1β ([2]; Short-term exposure, 10 min > ATP, pirfenidone 25 mcg/mL): 100.0 pg/mL | IL-1β ([2]; Short-term exposure, 10 min > ATP, pirfenidone 125 mcg/mL): 118.7 pg/mL | IL-1β ([2]; Short-term exposure, 10 min > ATP, pirfenidone 625 mcg/mL): 66.3 pg/mL | IL-1β ([2]; Short-term exposure, 40 min > ATP, pirfenidone 5 mcg/mL): 95.8 pg/mL | IL-1β ([2]; Short-term exposure, 40 min > ATP, pirfenidone 25 mcg/mL): 50.4 pg/mL | IL-1β ([2]; Short-term exposure, 40 min > ATP, pirfenidone 125 mcg/mL): 36.3 pg/mL | IL-1β ([2]; Short-term exposure, 40 min > ATP, pirfenidone 625 mcg/mL): 27.3 pg/mL | T1/2 beta ([3]; aerosol 47 mg RDD, lung tissue, from plasma T1/2, Rubino et al., 2009 fasted-state): 2.5 h | T1/2 beta ([3]; aerosol 47 mg RDD, plasma, Rubino et al., 2009 fasted-state): 2.5 h | AUC (0-18 hrs) [3, 9]: 67700 ng·h/mL | Cmax [3, 9]: 14.2 microgram/mL | AUC (0-18 hrs) ([3]; oral 801 mg fed-state, plasma): 58900 ng·h/mL | Cmax ([3]; oral 801 mg fed-state, plasma): 7.9 microgram/mL | T1/2 beta ([3]; oral 801 mg fasted-state, lung tissue, from plasma T1/2, Rubino et al., 2009): 2.5 h | T1/2 beta ([3]; oral 801 mg fasted-state, plasma, Rubino et al., 2009): 2.5 h | T1/2 beta ([3]; oral 801 mg fed-state, lung tissue, from plasma T1/2, Rubino et al., 2009): 2.4 h | T1/2 beta ([3]; oral 801 mg fed-state, plasma, Rubino et al., 2009): 2.4 h | solubility ([4]; pH 4.4, aqueous with cosolvent or surfactant or cyclodextrin, 4% Gly, 0.04% PS80, 96.0% citrate buffer (10 mM), pH 4.4): 17.6 mg/mL (≈ 95 mM) | solubility ([4]; pH 4.5, aqueous with cosolvent or surfactant or cyclodextrin, 4% EtOH, 0.04% PS80, 96.0% citrate buffer (10 mM), pH 4.5): 21.9 mg/mL (≈ 118 mM) | solubility ([4]; pH 4.5, aqueous with cosolvent or surfactant or cyclodextrin, 4% EtOH, 0.1% CPB, 95.9% citrate buffer (10 mM), pH 4.5): 20.4 mg/mL (≈ 110 mM) | solubility ([4]; pH 4.5, aqueous with cosolvent or surfactant or cyclodextrin, 8% PG, 0.04% PS80, 92.0% citrate buffer (10 mM), pH 4.5): 23.2 mg/mL (≈ 125 mM) | solubility ([4]; pH 4.5, aqueous with cosolvent or surfactant or cyclodextrin, 8% PG, 0.1% CPB, 91.9% citrate buffer (10 mM), pH 4.5): 21 mg/mL (≈ 113 mM) | solubility ([4]; pH 4.6, aqueous with cosolvent or surfactant or cyclodextrin, 8% PG, 0.04% PS80, 92.0% water, pH 4.6): 23.4 mg/mL (≈ 126 mM) | solubility ([4]; pH 4.7, aqueous with cosolvent or surfactant or cyclodextrin, 4% EtOH, 0.04% PS80, 96.0% water, pH 4.7): 22.5 mg/mL (≈ 121 mM) | solubility ([4]; pH 4.9, aqueous with cosolvent or surfactant or cyclodextrin, 4% EtOH, 0.1% CPB, 95.9% water, pH 4.9): 20.2 mg/mL (≈ 109 mM)
